The source of these data is patent US8686150B2 (Sanofi, priority 2011, dated 2014).

Molecules are shown by their SMILES.

This assay has as its target T1, human full-length recombinant PKC βII (Homo sapiens, UniProt P05771).
T1 construct: Active human full-length recombinant PKC βII; purchased Invitrogen GmbH, Darmstadt, Germany
As to the kind of experiment: Determination of PKC βII inhibition (Caliper mobility-shift kinase assay, Fluorescein-RFARKGSLRQKNV peptide substrate). It is filed as biochemical. As to conditions: example compounds at a final concentration of 1.14 μM (±0.15 μM). The essentials: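 Full-length PKC βII (30 ng/ml in pre-dilution) with PS/DAG/Ca2+ activators, pH 7.4; fluorescein peptide and ATP at 3 μM and 120 μM before mixing. Reaction ran 60 min at 32 °C, was EDTA-stopped, and was read by mobility shift. % inhibition came from product/(substrate+product) peak heights, tested at 1.14 μM final.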

T1 sequence (P05771 1-673 isoform P05771-2): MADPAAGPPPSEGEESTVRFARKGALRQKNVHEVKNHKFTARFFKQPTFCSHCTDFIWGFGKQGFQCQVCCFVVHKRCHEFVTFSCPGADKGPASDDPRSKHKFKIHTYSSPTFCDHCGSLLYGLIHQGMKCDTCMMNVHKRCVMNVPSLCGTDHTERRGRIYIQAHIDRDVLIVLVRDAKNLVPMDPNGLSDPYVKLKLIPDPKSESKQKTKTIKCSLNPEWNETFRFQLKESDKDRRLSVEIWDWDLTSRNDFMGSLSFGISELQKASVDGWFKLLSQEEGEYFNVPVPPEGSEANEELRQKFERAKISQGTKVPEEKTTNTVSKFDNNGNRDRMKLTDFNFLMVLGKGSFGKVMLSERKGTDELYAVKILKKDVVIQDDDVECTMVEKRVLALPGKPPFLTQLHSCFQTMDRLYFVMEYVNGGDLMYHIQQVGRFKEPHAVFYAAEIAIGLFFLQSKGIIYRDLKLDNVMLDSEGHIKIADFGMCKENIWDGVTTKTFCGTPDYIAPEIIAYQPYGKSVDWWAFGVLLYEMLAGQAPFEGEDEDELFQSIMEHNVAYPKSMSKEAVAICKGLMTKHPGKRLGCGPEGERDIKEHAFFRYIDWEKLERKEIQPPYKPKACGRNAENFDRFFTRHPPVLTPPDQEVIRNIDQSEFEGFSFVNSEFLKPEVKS

As usually defined, the inhibition is how much of the control response was suppressed. Take `Cc1n[nH]c2nc(-c3ccc(O)cc3)cc(C(=O)N3CCCN(C(=O)c4ccncc4)CC3)c12` [Example 387, [6-(4-Hydroxy-phenyl)-3-methyl-1H-pyrazolo[3,4-b]pyridin-4-yl]-[4-(pyridine-4-carbonyl)-[1,4]diazepan-1-yl]-methanone]: the inhibition at 1.14 µM was 39%.
Under `Cc1n[nH]c2nc(-c3ccc(O)cc3)cc(C(=O)NCCN3CCC(c4ccccc4)C3)c12` (stereo not drawn) [Example 388, 6-(4-Hydroxy-phenyl)-3-methyl-1H-pyrazolo[3,4-b]pyridine-4-carboxylic acid [2-(3-phenyl-pyrrolidin-1-yl)-ethyl]-amide] stands 54%.
As for `Cc1n[nH]c2nc(-c3ccc(O)cc3)cc(C(=O)NCC(C)N3CCCC3)c12` (stereo not drawn) [Example 389, 6-(4-Hydroxy-phenyl)-3-methyl-1H-pyrazolo[3,4-b]pyridine-4-carboxylic acid (2-pyrrolidin-1-yl-propyl)-amide], the figure is 65%; as for `Cc1n[nH]c2nc(-c3ccc(O)cc3)cc(C(=O)NCCN3CCC(c4ccccc4)CC3)c12` [Example 390, 6-(4-Hydroxy-phenyl)-3-methyl-1H-pyrazolo[3,4-b]pyridine-4-carboxylic acid [2-(4-phenyl-piperidin-1-yl)-ethyl]-amide], 67%; as for `Cc1n[nH]c2nc(-c3ccc(O)cc3)cc(C(=O)NCC(c3ccccc3)N3CCCC3)c12` (stereo not drawn) [Example 391, 6-(4-Hydroxy-phenyl)-3-methyl-1H-pyrazolo[3,4-b]pyridine-4-carboxylic acid (2-phenyl-2-pyrroiidin-1-yl-ethyl)-amide], 84%.
Take `Cc1n[nH]c2nc(-c3ccc(O)cc3)cc(C(=O)NC3CCN(Cc4ccccc4)CC3)c12` [Example 392, 6-(4-Hydroxy-phenyl)-3-methyl-1H-pyrazolo[3,4-b]pyridine-4-carboxylic acid (1-benzyl-piperidin-4-yl)-amide]: the inhibition at 1.14 µM amounted to 49%.
As to `Cc1n[nH]c2nc(-c3ccc(O)cc3)cc(C(=O)NCC(c3ccccc3)N3CCNCC3)c12` (stereo not drawn) [Example 393, 6-(4-Hydroxy-phenyl)-3-methyl-1H-pyrazolo[3,4-b]pyridine-4-carboxylic acid (2-phenyl-2-piperazin-1-yl-ethyl)-amide], the inhibition at 1.14 µM came out at 55%.
With `Cc1n[nH]c2nc(-c3ccc(O)cc3)cc(C(=O)NCC(c3ccccc3)N3CCOCC3)c12` (stereo not drawn) [Example 394, 6-(4-Hydroxy-phenyl)-3-methyl-1H-pyrazolo[3,4-b]pyridine-4-carboxylic acid (2-morpholin-4-yl-2-phenyl-ethyl)-amide], the inhibition at 1.14 µM amounted to 23%.
As for `Cc1n[nH]c2nc(-c3ccc(O)cc3)cc(C(=O)NCCC3CCNCC3)c12` [Example 395, 6-(4-Hydroxy-phenyl)-3-methyl-1H-pyrazolo[3,4-b]pyridine-4-carboxylic acid (2-piperidin-4-yl-ethyl)-amide], the figure is 42%.
As for `Cc1n[nH]c2nc(-c3ccc(O)cc3)cc(C(=O)NC3CCC(N(C)C)CC3)c12` (stereo not drawn) [Example 396, 6-(4-Hydroxy-phenyl)-3-methyl-1H-pyrazolo[3,4-b]pyridine-4-carboxylic acid (4-dimethylamino-cyclohexyl)-amide], the inhibition at 1.14 µM is 39%.
Under `C[C@H]1CN(C(=O)c2cc(-c3ccc(O)cc3)nc3[nH]nc(C(F)(F)F)c23)CCN1` [Example 397, [6-(4-Hydroxy-phenyl)-3-trifluoromethyl-1H-pyrazolo[3,4-b]pyridin-4-yl]-((S)-3-methyl-piperazin-1-yl)-methanone] stands 73%.
As for `O=C(N[C@@H]1CCCNC1)c1cc(-c2ccc(O)cc2)nc2[nH]nc(C(F)(F)F)c12` [Example 398, 6-(4-Hydroxy-phenyl)-3-trifluoromethyl-1H-pyrazolo[3,4-b]pyridine-4-carboxylic acid (R)-piperidin-3-ylamide], the figure is 21%; as for `NC1CCN(C(=O)c2cc(-c3ccc(O)cc3)nc3[nH]nc(C(F)(F)F)c23)CC1` [Example 399, (4-Amino-piperidin-1-yl)-[6-(4-hydroxy-phenyl)-3-trifluoromethyl-1H-pyrazolo[3,4-b]pyridin-4-yl]-methanone], 60%; as for `O=C(c1cc(-c2ccc(O)cc2)nc2[nH]nc(C(F)(F)F)c12)N1CC2CNCC2C1` (stereo not drawn) [Example 400, (Hexahydro-pyrrolo[3,4-c]pyrrol-2-yl)-[6-(4-hydroxy-phenyl)-3-trifluoromethyl-1H-pyrazolo[3,4-b]pyridin-4-yl]-methanone], 62%.
As for `C[C@@H]1CN(C(=O)c2cc(-c3ccc(O)cc3)nc3[nH]nc(C(F)(F)F)c23)CCN1` [Example 401, [6-(4-Hydroxy-phenyl)-3-trifluoromethyl-1H-pyrazolo[3,4-b]pyridin-4-yl]-((R)-3-methyl-piperazin-1-yl)-methanone], the figure is 71%; as for `O=C(NC1CNC1)c1cc(-c2ccc(O)cc2)nc2[nH]nc(C(F)(F)F)c12` [Example 402, 6-(4-Hydroxy-phenyl)-3-trifluoromethyl-1H-pyrazolo[3,4-b]pyridine-4-carboxylic acid azetidin-3-ylamide], 41%.
In the case of `O=C(c1cc(-c2ccc(O)cc2)nc2[nH]nc(C(F)(F)F)c12)N1CC2(CCNCC2)C1` [Example 403, (2,7-Diaza-spiro[3.5]non-2-yl)-[6-(4-hydroxy-phenyl)-3-trifluoromethyl-1H-pyrazolo[3,4-b]pyridin-4-yl]-methanone], the inhibition at 1.14 µM turned out to be 55%.
As for `N[C@H]1CCN(C(=O)c2cc(-c3ccc(O)cc3)nc3[nH]nc(C(F)(F)F)c23)C1` [Example 404, ((S)-3-Amino-pyrrolidin-1-yl)-[6-(4-hydroxy-phenyl)-3-trifluoromethyl-1H-pyrazolo[3,4-b]pyridin-4-yl]-methanone], the figure is 31%.
As for `O=C(c1cc(-c2ccc(O)cc2)nc2[nH]nc(C(F)(F)F)c12)N1CCC2(CC1)CNC2` [Example 405, (2,7-Diaza-spiro[3.5]non-7-yl)-[6-(4-hydroxy-phenyl)-3-trifluoromethyl-1H-pyrazolo[3,4-b]pyridin-4-yl]-methanone], the figure is 48%; as for `CNC1CCN(C(=O)c2cc(-c3ccc(O)cc3)nc3[nH]nc(C(F)(F)F)c23)C1` (stereo not drawn) [Example 406, [6-(4-Hydroxy-phenyl)-3-trifluoromethyl-1H-pyrazolo[3,4-b]pyridin-4-yl]-(3-methylamino-pyrrolidin-1-yl)-methanone], 47%.
For `O=C(c1cc(-c2ccc(O)cc2)nc2[nH]nc(C(F)(F)F)c12)N1CCC2(CCCNC2)C1` (stereo not drawn) [Example 407, (2,7-Diaza-spiro[4.5]dec-2-yl)-[6-(4-hydroxy-phenyl)-3-trifluoromethyl-1H-pyrazolo[3,4-b]pyridin-4-yl]-methanone], the inhibition at 1.14 µM amounted to 20%.
Under `O=C(c1cc(-c2ccc(O)cc2)nc2[nH]nc(C(F)(F)F)c12)N1CCC2CNCC21` (stereo not drawn) [Example 408, (Hexahydro-pyrrolo[3,4-b]pyrrol-1-yl)-[6-(4-hydroxy-phenyl)-3-trifluoromethyl-1H-pyrazolo[3,4-b]pyridin-4-yl]-methanone] stands 21%; under `O=C(c1cc(-c2ccc(O)cc2)nc2[nH]nc(C(F)(F)F)c12)N1CCC2(CCNCC2)C1` [Example 409, (2,8-Diaza-spiro[4.5]dec-2-yl)-[6-(4-hydroxy-phenyl)-3-trifluoromethyl-1H-pyrazolo[3,4-b]pyridin-4-yl]-methanone], 23%; under `O=C(c1cc(-c2ccc(O)cc2)nc2[nH]nc(C(F)(F)F)c12)N1CCC2(CCNC2)CC1` [Example 410, (2,8-Diaza-spiro[4.5]dec-8-yl)-[6-(4-hydroxy-phenyl)-3-trifluoromethyl-1H-pyrazolo[3,4-b]pyridin-4-yl]-methanone], 20%.
Regarding `O=C(c1cc(-c2ccc(O)cc2)nc2[nH]nc(C(F)(F)F)c12)N1CCC2(CCNCC2)CC1` [Example 411, (3,9-Diaza-spiro[5.5]undec-3-yl)-[6-(4-hydroxy-phenyl)-3-trifluoromethyl-1H-pyrazolo[3,4-b]pyridin-4-yl]-methanone], the inhibition at 1.14 µM worked out at 24%.
Take `O=C(N[C@@H]1CN2CCC1CC2)c1cc(-c2ccc(O)cc2)nc2[nH]nc(C(F)(F)F)c12` [Example 412, 6-(4-Hydroxy-phenyl)-3-trifluoromethyl-1H-pyrazolo[3,4-b]pyridine-4-carboxylic acid [(S)-1-aza-bicyclo[2.2.2]oct-3-yl]-amide]: the inhibition at 1.14 µM was determined as 23%.
Consider `O=C(N[C@H]1CN2CCC1CC2)c1cc(-c2ccc(O)cc2)nc2[nH]nc(C(F)(F)F)c12` [Example 413, 6-(4-Hydroxy-phenyl)-3-trifluoromethyl-1H-pyrazolo[3,4-b]pyridine-4-carboxylic acid [(R)-1-aza-bicyclo[2.2.2]oct-3-yl]-amide], for which the inhibition at 1.14 µM amounted to 29%.
`CCN1CCCN(C(=O)c2cc(-c3ccc(O)cc3)nc3[nH]nc(C(F)(F)F)c23)CC1` [Example 414, (4-Ethyl-[1,4]diazepan-1-yl)-[6-(4-hydroxy-phenyl)-3-trifluoromethyl-1H-pyrazolo[3,4-b]pyridin-4-yl]-methanone]: the inhibition at 1.14 µM was determined as 30%.
Consider `Cc1n[nH]c2nc(-c3ccc(O)cc3F)cc(C(=O)N3CCC(N)(c4ccccc4)CC3)c12` [Example 415, (4-Amino-4-phenyl-piperidin-1-yl)-[6-(2-fluoro-4-hydroxy-phenyl)-3-methyl-1H-pyrazolo[3,4-b]pyridin-4-yl]-methanone], for which the inhibition at 1.14 µM turned out to be 90%.
Under `CCC1(N)CCN(C(=O)c2cc(-c3ccc(O)cc3F)nc3[nH]nc(C)c23)CC1` [Example 416, (4-Amino-4-ethyl-piperidin-1-yl)-[6-(2-fluoro-4-hydroxy-phenyl)-3-methyl-1H-pyrazolo[3,4-b]pyridin-4-yl]-methanone] stands 84%.
